This is an account of results in article PMC6009933, “Discovery of novel dual inhibitors of receptor tyrosine kinases EGFR and IGF-1R” (Journal of Enzyme Inhibition and Medicinal Chemistry, 2017).

The Ki is a measure of affinity in units of concentration, obtained from inhibition or displacement.

The target in one test is T1, EGFR (Homo sapiens, UniProt P00533).
T1 construct: GST; made in house; host or cells: Sf9 insect cells (baculovirus)
The test can be described thus: Receptor tyrosine kinase inhibition, 33P-ATP FlashPlate assay (EGFR). Format: biochemical. Particulars: recombinant GST fusion kinase, substrate Poly(Glu,Tyr)4:1, Ki from IC50, Km ATP 1.3 µM. As to the method:
(§1) The protein kinases were expressed by means of the baculovirus expression system in Sf9 insect cells as human recombinant GST fusion proteins and purified by affinity chromatography using GSH-agarose. The kinase identity was confirmed by mass spectrometry using LC-ESI-MS/MS technique.
(§2) The measuring of protein kinase activity was performed in 96-well FlashPlates^TM from Perkin Elmer in a 50 µL reaction volume. The reaction mixture consisted of 20 µL of assay buffer solution, 5 µL of ATP solution in water, 5 µL of used test compound in a 10% DMSO solution and finally a premixture of each 10 µL of used substrate and enzyme solutions. The assay buffer solution contained 70 mM of HEPES-NAOH pH 7.5, each 3 mM of magnesium chloride and manganese(II) chloride, 3 µM of sodium orthovanadate, 1.2 mM of DTT, 50 µg/mL of PEG20000 and finally 15 µM of [γ-^33P]-ATP making approximately 7 × 10^5 cpm per well.
(§3) The final kinase concentration has been 10 ng/50 µL for EGFR and IGF-1R. The used substrate was Poly(Glu,Tyr)4:1 in a concentration of 125 ng/50 µL.
(§4) The reaction mixtures were incubated at 30 °C for 60 min. The reaction was stopped with 50 µL of a 2% (v/v) solution of phosphoric acid. Then, the plates were aspirated and washed twice with 200 µL of water or 0.9% solution of sodium chloride. The incorporation of ^33Pi was determined with a microplate scintillation counter. Ten different inhibitor concentrations were measured in a range of 3 nM to 100 µM. The residual activity (%) and the IC50 values were finally calculated. From the IC50 values, the affinity constants Ki were determined using the equation: IC50 = 1/2 [Etotal] + Ki× (1 + [S]/Km) following a competitive inhibitor binding mode[18]. The used Km values for ATP have been measured with 1.3 µM for EGFR and with 2.52 µM for IGF-1R (Table 1).

The target of test [1] is T2, IGF-1R (Homo sapiens, UniProt P08069).
T2 construct: GST; made in house; host or cells: Sf9 insect cells (baculovirus)
The test can be described thus: Receptor tyrosine kinase inhibition, 33P-ATP FlashPlate assay (IGF-1R). Format: biochemical. As to conditions: for Ki: recombinant GST fusion kinase, substrate Poly(Glu,Tyr)4:1, Ki from IC50, Km ATP 2.52 µM. As to the method:
as §1, §2, §3, §4

Test [2] deals with IGF-1R. Details: method as in PMID 23639757. As to conditions: cited from earlier work.

T1 sequence (P00533 25-1210): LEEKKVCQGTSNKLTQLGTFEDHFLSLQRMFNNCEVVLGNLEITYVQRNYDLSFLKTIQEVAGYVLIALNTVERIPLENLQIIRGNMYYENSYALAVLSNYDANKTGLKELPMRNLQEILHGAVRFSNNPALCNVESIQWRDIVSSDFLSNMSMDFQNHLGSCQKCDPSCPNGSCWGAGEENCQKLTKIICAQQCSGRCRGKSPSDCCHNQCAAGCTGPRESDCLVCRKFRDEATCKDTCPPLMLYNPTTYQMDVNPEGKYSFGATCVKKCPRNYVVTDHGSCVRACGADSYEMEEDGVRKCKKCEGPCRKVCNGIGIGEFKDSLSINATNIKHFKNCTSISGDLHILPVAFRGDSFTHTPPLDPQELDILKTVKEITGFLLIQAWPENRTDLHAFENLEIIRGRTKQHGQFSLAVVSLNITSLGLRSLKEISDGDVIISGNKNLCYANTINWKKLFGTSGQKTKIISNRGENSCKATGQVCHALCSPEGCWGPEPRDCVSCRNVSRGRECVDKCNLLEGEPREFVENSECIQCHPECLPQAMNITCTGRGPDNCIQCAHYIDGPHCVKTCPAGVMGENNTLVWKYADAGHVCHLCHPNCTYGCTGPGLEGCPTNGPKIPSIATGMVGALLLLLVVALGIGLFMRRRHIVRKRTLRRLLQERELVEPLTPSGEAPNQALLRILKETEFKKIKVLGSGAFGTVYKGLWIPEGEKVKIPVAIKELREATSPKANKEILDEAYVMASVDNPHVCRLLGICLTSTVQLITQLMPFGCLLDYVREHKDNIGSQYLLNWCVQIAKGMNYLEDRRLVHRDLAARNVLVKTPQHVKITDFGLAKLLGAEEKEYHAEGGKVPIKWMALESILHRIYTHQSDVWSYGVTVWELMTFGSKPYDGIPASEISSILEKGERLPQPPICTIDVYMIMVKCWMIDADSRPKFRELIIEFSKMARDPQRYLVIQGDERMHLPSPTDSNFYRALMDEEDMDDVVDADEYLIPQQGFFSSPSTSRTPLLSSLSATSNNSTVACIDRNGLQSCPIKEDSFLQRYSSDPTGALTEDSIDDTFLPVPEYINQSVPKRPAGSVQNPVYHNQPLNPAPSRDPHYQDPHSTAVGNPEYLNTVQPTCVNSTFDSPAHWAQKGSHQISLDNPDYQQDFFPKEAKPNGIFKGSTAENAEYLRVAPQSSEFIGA
T2 sequence (P08069 31-1367): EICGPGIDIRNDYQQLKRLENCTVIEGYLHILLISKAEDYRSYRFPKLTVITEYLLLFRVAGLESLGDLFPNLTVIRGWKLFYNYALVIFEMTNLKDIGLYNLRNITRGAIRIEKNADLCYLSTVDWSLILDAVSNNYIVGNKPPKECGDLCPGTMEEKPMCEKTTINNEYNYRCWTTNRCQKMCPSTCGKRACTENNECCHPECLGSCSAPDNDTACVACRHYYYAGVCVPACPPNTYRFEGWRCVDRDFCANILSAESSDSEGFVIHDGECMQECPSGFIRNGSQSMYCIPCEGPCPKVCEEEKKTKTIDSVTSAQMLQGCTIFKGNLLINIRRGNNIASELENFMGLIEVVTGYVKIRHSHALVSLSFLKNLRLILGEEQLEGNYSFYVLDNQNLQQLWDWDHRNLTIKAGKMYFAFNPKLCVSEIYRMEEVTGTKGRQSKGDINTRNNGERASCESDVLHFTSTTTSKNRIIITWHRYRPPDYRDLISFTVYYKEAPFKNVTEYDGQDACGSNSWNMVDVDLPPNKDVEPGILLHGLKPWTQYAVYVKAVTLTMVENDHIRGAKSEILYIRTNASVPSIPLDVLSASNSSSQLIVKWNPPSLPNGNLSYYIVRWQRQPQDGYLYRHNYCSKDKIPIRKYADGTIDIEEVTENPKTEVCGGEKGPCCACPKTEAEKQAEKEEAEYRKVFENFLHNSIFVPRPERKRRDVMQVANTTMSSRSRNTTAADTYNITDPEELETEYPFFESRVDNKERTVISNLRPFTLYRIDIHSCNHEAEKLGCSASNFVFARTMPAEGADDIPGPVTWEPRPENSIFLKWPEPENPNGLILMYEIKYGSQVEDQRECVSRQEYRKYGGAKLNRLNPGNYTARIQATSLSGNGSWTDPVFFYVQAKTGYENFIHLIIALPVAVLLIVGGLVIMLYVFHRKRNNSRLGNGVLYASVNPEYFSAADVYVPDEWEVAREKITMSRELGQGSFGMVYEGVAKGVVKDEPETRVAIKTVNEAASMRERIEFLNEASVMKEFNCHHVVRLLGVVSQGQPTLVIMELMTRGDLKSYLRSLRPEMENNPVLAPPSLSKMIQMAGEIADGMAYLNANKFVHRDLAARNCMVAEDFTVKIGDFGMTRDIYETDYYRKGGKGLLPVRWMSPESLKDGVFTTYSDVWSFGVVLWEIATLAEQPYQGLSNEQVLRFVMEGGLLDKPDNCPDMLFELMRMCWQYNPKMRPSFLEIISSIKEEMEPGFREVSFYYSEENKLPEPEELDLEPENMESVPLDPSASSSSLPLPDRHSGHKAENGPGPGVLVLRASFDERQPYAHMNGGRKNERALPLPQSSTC

Regarding `Brc1ccc(CNc2ccnc3[nH]c4ccc(Br)cc4c23)cc1` [Compound 5g, N^4–(4-Bromobenzyl)-6-bromo-9H-pyrido[2,3-b]indole-4-amine], the Ki amounted to 448 ± 72 nM at EGFR and 884 ± 25 nM at IGF-1R [1].
As for `COc1ccc(CNc2ccnc3[nH]c4ccc(C#N)cc4c23)cc1` [Compound 6b, 4–(4-Methoxybenzyl)amino-9H-pyrido[2,3-b]indole-6-carbonitrile], the figures for the Ki on EGFR and on IGF-1R [1] were 158 ± 26 nM and 269 ± 22 nM, respectively.
Turning to `Clc1ccc(CNc2ccnc3[nH]c4ccc(Br)cc4c23)cc1` [Compound 5f, N^4–(4-Chlorobenzyl)-6-bromo-9H-pyrido[2,3-b]indole-4-amine], the “Ki values EGFR” value on EGFR was “lost”. Further, the Ki at IGF-1R [1] came out at 2290 ± 43 nM.
As for `C#Cc1cccc(Nc2ncnc3cc(OCCOC)c(OCCOC)cc23)c1` [erlotinib], the “activity toward IGF-1R (erlotinib)” value in the test with IGF-1R [2] was “no activity”.
For `Cc1ccc(CNc2ccnc3[nH]c4ccc(Br)cc4c23)cc1` [Compound 5h, N^4–(4-Methylbenzyl)-6-bromo-9H-pyrido[2,3-b]indole-4-amine], the inhibition constant (Ki) on EGFR amounted to 279 ± 91 nM; at IGF-1R [1], 697 ± 15 nM.
The corresponding values for `COc1ccc(CNc2ccnc3[nH]c4ccc(Br)cc4c23)cc1` [Compound 5e, N^4–(4-Methoxybenzyl)-6-bromo-9H-pyrido[2,3-b]indole-4-amine] are 1170 ± 57 nM and 2230 ± 22 nM.
In the case of `Cc1ccc(CNc2ccnc3[nH]c4ccc(C#N)cc4c23)cc1` [Compound 6c, 4–(4-Methylbenzyl)amino-9H-pyrido[2,3-b]indole-6-carbonitrile], the figures for the Ki at EGFR and at IGF-1R [1] were 160 ± 15 nM and 390 ± 16 nM, respectively.
In the case of `Nc1cccc(CNc2ccnc3[nH]c4ccc(Br)cc4c23)c1` [Compound 5d, N^4–(3-Aminobenzyl)-6-bromo-9H-pyrido[2,3-b]indole-4-amine], the Ki was determined as 101 ± 11 nM at EGFR and 537 ± 22 nM on IGF-1R [1].
Consider `COc1cccc(CNc2ccnc3[nH]c4ccc(C#N)cc4c23)c1` [Compound 6a, 4–(3-Methoxybenzyl)amino-9H-pyrido[2,3-b]indole-6-carbonitrile], for which the Ki on EGFR is 72 ± 17 nM; on IGF-1R [1], 288 ± 26 nM. Further, the “affinity towards IGF-1R relative to corresponding 6-bromo compound 5a” value at IGF-1R [1] (fold comparison of Ki with 5a) is recorded as “more than thirtyfold higher”.
On to `COc1cccc(CNc2ccnc3[nH]c4ccc(C(=O)O)cc4c23)c1` [Compound 7], for which the Ki is 140 ± 28 nM at EGFR and 2360 ± 132 nM at IGF-1R [1]. The “affinity towards IGF-1R relative to corresponding 6-cyano compound 6a” value on IGF-1R [1] (fold comparison of Ki with 6a) is “almost tenfold lower”.
Consider `Brc1cccc(CNc2ccnc3[nH]c4ccc(Br)cc4c23)c1` [Compound 5c, N^4–(3-Bromobenzyl)-6-bromo-9H-pyrido[2,3-b]indole-4-amine], for which the figures for the Ki on EGFR and on IGF-1R [1] were 255 ± 18 nM and 2960 ± 37 nM, respectively.
The like results for `Clc1cccc(CNc2ccnc3[nH]c4ccc(Br)cc4c23)c1` [Compound 5b, N^4–(3-Chlorobenzyl)-6-bromo-9H-pyrido[2,3-b]indole-4-amine] were, in that order, 361 ± 35 nM and 3470 ± 71 nM.
With `COc1cccc(CNc2ccnc3[nH]c4ccc(Br)cc4c23)c1` [Compound 5a, N^4–(3-Methoxybenzyl)-6-bromo-9H-pyrido[2,3-b]indole-4-amine], the Ki on EGFR came to 344 ± 24 nM; at IGF-1R [1] it was 9840 ± 238 nM.
